Experimental data: US11492644B2, “Genetically induced nephron progenitors” (MURDOCH CHILDRENS RESEARCH INSTITUTE, priority 2017, dated 2022)

Test system: Cited1
Test: In situ reprogramming by renal pelvis hydrodynamic injection
Type: in vivo, mouse
Conditions: Cited1-CreERT2 BAC transgenic mice, 72 h post-injection
Procedure: Renal pelvis hydrodynamic injection was performed as previously described (Woodard et al Sci Rep 2017, Woodard et al J. Vis. Exp. 2017) on 15 week-old Cited1-CreER^T2 BAC transgenic mice (Boyle et al Dev. Biol. 2008). Mice were assayed for presence of the GFP transgene at weaning (Transnetyx, Cordova, Tenn.). A solution of 50 ug of pT-mSES in 100 uL of buffer QR (Minis Bio, Madison, Wis.) was injected quickly into the renal pelvis of mice anesthetized with ketamine/xylazine. Mice were treated every 8-12 h with buprenorphine for pain management for 48 h and sacrificed at 72 h post-injection.
There were eGFP-positive cells with a similar morphology present in both QR-injected and pT-mSES-injected transgenic animals (FIG. 16, panels a and b). However, only in the pT-mSES-injected transgenic animals were there cells appearing to be derived from tubule-like structures that were eGFP-positive (FIG. 16c). In contrast, in wild-type, non-transgenic mice receiving either QR or pT-mSES, no positive eGFP cells could be found. Therefore, cellular reprogramming to an induced nephron progenitor state may be possible in vivo following gene delivery of Snai2, Six1 and Eya1.

pT-mSES: piggyBac transposon plasmid (SEQ ID NO:12) expressing mouse Six1, Snai2 and Eya1 from the elongation factor 1 alpha promoter
eGFP expression from the Cited1 promoter: induced eGFP expression indicative of Cited1 positivity
